Source: ChEMBL document CHEMBL1201862, “PubChem BioAssay data set” (2004)
Values joined by “and” are separate entries in the source; they are usually repeats but may differ in a detail not shown here. Equal values may be shown once. Active and inactive are the calls of the source.

Key:
Cytochrome P450 2C9 = Cytochrome P450 2C9 (Homo sapiens, UniProt P11712); conditions: Potency
HEK293 = assay: Fluorescence-based counterscreen for potentiators or agonists of NPY-Y1: cell-based high-throughput dose response assay for inhibitors of cyclic nucleotide gated ion channel (CNGC) activity. In this assay, the parental HEK293 cell line transfected with a cyclic-nucleotide gated ion channel (CNGC)-based cAMP sensor is used to measure inhibition of isoproterenol-induced CNGC …; assay type: functional; conditions: Homo sapiens
[1] = target: T1, Neuropeptide Y receptor type 2 (Homo sapiens, UniProt P49146); assay: Fluorescence-based counterscreen for agonists of NPY-Y1: cell-based high-throughput dose response assay for agonists of NPY-Y2.; assay type: functional
T1 sequence (P49146 whole entry): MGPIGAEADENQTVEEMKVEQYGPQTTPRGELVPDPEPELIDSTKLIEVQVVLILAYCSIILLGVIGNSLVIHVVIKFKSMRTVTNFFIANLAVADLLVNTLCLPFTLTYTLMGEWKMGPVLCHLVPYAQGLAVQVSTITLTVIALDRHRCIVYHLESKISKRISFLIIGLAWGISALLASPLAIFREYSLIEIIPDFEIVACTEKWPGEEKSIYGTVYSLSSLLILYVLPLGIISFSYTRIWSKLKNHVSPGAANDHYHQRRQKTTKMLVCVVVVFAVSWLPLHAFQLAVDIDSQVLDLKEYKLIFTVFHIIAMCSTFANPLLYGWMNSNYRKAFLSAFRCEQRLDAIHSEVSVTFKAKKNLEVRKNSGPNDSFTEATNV

[2] = target: T2, Neuropeptide Y receptor type 1 (Homo sapiens, UniProt P25929); assay: Fluorescence-based dose response cell-based high-throughput screening assay for agonists of NPY-Y1. [Related pubchem assays: 1697 (Screening assay (NPY-Y1 agonists).), 1359 (Screening assay (NPY-Y2 potentiators or agonists).), 1304 (Screening assay (NPY-Y1 potentiators or agonists).), 1704 (Screening assay (CNGC inhibitors).), 1791 (Summary AID.)]; assay type: functional
T2 sequence (P25929 whole entry): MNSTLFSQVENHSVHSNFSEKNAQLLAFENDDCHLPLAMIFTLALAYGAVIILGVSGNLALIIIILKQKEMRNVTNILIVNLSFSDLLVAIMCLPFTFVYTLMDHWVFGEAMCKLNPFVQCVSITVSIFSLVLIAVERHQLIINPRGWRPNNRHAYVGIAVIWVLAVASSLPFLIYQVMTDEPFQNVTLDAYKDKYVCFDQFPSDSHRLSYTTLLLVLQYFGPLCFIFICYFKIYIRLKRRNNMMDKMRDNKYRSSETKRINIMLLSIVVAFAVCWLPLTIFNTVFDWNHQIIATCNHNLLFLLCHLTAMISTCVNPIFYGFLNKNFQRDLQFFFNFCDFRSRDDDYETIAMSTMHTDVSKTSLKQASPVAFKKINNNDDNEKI

H4 = assay: Luminescence Cell-Based Dose Response HTS to Identify Activators of 5'UTR Stem-Loop Driven Prion Protein mRNA Translation in H4 Neuroglioblastoma Cells. [Related pubchem assays: 1829 (Project Summary), 1814 (Primary HTS)]; assay type: functional; conditions: Homo sapiens
[3] = Luminescence Cell-Based Dose Confirmation HTS to Identify Activators of 5'UTR Stem-Loop Driven Alpha-Synuclein mRNA Translation in H4 Neuroglioblastoma Cells. [Related pubchem assays: 1829 (Project Summary), 1814 (Primary HTS)]; assay type: functional
[4] = target: T3, Mannose-6-phosphate isomerase (Homo sapiens, UniProt P34949); assay: inhibitors of human PMI, primary screen, biochemical, fluorescence intensity, coupled assay (AID 1209)
T3 sequence (P34949 whole entry): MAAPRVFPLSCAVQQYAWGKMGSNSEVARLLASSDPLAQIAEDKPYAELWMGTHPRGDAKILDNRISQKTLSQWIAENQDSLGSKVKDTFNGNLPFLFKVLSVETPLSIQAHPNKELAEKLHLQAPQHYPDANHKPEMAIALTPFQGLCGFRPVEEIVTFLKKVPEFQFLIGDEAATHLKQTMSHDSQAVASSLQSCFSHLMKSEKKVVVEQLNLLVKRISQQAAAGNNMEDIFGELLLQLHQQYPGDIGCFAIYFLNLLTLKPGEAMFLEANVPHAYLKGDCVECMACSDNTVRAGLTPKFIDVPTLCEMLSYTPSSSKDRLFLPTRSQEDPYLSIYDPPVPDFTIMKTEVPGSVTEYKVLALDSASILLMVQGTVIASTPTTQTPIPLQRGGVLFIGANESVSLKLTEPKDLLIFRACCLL

[5] = target: T3, Mannose-6-phosphate isomerase; assay: human PMI inhibitors, high substrate, primary screen, biochemical, fluorescence intensity, high mannose 6-phosphate (AID 1220)
[6] = HEp-2 cell cytotoxicity, dose response, cytotoxicity control for RSV inhibitor project, HTS (AID 2410); assay type: functional; conditions: human respiratory syncytial virus
[7] = Luminescence Cell-Based Dose Response HTS to Identify Activators of Luciferase Translation or Activity in H4 […] Cells. [Related pubchem assays: 1829 (Project Summary), 1814 (Primary HTS)]; assay type: functional
[8] = target: Mothers against decapentaplegic homolog 3 (Homo sapiens, UniProt P84022); assay: Smad3 binding inhibitors, lysate ELISA, dose response, cell lysate, secondary confirmation, chemiluminescent ELISA, HEK293 lysate (AID 1058); assay type: functional
[9] = target: Voltage-gated inwardly rectifying potassium channel KCNH2 (Homo sapiens, UniProt Q12809); conditions: Potency;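 further: confirmatory quantitative high-throughput screen measuring inhibition of hERG channel activity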
[10] = target: Protein-tyrosine kinase 2-beta (Homo sapiens, UniProt Q14289);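 further: potency of inhibitors of PYK2 kinase phosphorylation of poly-GT substrate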
Heat shock protein HSP90 = Heat shock protein HSP90 (Homo sapiens, UniProt P07900+P08238); assay: tumor Hsp90 inhibitor potency, dose response (AID 712); assay type: functional
[11] = target: Dual specificity protein phosphatase 3 (Homo sapiens, UniProt P51452); assay: VHR1 inhibitor Ki determination, SAR follow-up, biochemical, colorimetric (AID 2004)
[12] = target: Cyclin-dependent kinase 5/CDK5 activator 1 (Homo sapiens, UniProt Q00535); assay: CDK5/p35 kinase inhibitors, dose response, biochemical, cherry-picked samples, set 2 (AID 504545)
[13] = target: Heat shock protein HSP 90-alpha (Homo sapiens, UniProt P07900); assay type: functional, organism-based

Chain of Voltage-gated inwardly rectifying potassium channel KCNH2 (Q12809 whole entry): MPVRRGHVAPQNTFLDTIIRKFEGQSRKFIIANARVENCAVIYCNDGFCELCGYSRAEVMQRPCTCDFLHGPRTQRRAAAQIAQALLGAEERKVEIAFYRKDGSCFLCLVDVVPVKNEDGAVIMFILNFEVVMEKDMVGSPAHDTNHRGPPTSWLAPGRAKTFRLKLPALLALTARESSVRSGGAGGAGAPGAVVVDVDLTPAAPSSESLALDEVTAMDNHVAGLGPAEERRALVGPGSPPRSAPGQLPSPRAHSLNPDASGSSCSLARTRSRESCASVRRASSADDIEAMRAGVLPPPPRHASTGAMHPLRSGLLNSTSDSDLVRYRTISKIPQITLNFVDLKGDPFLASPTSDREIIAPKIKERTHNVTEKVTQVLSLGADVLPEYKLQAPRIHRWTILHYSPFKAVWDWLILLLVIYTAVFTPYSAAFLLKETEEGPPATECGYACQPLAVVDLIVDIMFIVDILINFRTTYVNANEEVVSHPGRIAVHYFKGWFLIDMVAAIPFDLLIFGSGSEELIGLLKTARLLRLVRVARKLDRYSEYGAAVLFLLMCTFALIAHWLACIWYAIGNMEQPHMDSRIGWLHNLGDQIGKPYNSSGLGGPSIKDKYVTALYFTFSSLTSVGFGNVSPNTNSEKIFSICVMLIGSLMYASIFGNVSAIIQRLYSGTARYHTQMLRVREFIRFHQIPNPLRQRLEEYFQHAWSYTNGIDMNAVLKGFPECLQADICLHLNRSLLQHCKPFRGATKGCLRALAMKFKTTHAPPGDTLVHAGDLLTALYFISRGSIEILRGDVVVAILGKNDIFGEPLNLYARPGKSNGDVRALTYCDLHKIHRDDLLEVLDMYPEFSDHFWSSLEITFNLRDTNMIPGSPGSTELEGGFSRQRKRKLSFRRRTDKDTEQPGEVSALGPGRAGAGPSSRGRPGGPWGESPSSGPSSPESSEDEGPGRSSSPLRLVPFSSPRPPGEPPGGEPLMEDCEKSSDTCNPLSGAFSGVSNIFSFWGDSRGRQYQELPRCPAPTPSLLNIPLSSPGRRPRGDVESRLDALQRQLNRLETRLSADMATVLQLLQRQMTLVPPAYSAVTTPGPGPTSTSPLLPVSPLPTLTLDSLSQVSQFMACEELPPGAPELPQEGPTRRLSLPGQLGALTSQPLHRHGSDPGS
Chain of Cyclin-dependent kinase 5/CDK5 activator 1 (Q00535 whole entry): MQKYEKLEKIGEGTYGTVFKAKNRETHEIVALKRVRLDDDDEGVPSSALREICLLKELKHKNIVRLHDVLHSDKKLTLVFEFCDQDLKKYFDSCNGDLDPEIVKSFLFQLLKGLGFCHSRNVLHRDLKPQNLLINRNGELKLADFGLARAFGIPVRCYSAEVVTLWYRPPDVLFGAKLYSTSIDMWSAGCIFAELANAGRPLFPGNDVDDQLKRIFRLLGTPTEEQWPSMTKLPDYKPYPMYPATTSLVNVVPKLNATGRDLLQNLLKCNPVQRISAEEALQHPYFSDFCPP
Chain of Cyclin-dependent kinase 5/CDK5 activator 1 (Q15078 whole entry, further chain): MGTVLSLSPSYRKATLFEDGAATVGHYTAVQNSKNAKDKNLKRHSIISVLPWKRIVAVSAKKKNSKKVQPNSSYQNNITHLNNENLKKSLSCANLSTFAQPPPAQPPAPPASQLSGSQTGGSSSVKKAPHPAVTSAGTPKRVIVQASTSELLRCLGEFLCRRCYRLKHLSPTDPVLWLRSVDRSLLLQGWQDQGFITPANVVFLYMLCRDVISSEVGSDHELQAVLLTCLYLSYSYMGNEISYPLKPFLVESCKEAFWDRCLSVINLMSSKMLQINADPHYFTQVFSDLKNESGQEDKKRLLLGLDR
Chain of Mothers against decapentaplegic homolog 3 (P84022 whole entry): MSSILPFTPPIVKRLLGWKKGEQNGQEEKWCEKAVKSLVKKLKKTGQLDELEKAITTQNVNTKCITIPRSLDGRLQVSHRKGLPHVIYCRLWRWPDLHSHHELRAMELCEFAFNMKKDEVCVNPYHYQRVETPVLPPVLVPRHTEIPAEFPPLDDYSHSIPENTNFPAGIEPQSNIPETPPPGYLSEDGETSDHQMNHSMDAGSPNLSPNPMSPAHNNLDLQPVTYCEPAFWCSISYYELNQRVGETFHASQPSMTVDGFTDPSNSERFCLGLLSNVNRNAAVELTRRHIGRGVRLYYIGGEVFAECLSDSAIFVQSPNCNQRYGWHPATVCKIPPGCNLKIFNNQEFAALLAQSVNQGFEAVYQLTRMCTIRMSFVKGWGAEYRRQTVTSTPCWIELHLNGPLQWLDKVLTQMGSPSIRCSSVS
Chain of Cytochrome P450 2C9 (P11712 whole entry): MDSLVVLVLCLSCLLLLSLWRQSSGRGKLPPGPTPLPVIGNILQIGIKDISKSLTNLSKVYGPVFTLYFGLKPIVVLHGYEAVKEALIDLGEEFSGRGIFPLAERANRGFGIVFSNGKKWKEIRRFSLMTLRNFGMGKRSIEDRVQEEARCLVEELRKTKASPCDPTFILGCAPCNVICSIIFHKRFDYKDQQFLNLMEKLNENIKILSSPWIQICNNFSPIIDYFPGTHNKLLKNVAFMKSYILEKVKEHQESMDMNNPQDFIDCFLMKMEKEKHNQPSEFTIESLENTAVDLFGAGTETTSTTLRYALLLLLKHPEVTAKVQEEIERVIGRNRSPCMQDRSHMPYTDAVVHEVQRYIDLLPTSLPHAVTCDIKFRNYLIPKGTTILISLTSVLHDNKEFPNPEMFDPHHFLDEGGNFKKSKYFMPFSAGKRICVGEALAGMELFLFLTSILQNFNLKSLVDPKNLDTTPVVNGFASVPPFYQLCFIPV
Chain of Dual specificity protein phosphatase 3 (P51452 whole entry): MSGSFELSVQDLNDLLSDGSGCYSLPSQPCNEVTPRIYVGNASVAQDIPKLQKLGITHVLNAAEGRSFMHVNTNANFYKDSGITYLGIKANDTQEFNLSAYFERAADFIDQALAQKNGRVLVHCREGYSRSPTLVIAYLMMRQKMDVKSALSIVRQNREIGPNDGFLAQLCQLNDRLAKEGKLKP
Chain of Protein-tyrosine kinase 2-beta (Q14289 whole entry): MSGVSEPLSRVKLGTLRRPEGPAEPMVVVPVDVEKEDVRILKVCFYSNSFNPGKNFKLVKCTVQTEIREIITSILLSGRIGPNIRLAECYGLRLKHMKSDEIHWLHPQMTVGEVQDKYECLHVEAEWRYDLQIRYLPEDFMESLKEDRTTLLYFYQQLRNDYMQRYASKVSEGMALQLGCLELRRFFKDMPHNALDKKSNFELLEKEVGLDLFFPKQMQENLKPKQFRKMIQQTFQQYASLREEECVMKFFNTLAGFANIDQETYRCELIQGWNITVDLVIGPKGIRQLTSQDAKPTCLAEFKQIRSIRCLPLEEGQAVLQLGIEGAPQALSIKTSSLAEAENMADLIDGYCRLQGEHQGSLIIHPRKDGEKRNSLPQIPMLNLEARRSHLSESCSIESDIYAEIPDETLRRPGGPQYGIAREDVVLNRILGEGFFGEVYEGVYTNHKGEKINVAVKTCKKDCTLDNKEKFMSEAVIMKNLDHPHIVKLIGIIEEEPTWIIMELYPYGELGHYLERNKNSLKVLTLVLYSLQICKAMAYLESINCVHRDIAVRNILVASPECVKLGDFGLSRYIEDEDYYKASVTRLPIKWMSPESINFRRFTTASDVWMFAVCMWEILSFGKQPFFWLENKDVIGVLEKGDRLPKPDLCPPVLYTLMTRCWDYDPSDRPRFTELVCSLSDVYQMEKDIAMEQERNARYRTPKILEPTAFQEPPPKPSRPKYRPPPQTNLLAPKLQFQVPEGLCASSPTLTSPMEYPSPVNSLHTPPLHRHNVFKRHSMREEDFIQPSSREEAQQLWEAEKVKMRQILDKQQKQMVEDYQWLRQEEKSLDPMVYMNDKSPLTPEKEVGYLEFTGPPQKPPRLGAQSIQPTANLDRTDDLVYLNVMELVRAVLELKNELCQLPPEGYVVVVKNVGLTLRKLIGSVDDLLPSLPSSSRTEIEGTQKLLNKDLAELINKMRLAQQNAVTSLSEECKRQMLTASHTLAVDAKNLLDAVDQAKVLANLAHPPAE

C=CCOC(=O)C(C(C)=O)C(NC(=O)OC)c1ccc(Cl)cc1 (configuration not stated)
AC50 (Cytochrome P450 2C9): 3.16 µM (inconclusive)

CSc1nc(-c2ccco2)nn1C(=O)c1ccccc1Cl
IC50 (HEK293): > 35.4 µM (not active) | EC50 [1]: > 35.4 µM (not active) | EC50 [2]: > 35.4 µM (not active)

CCOC(=O)c1c(C)oc2c1c1c(c3ccccc32)OCN(Cc2ccccn2)C1
EC50 (H4): 0.816 µM (active) | EC50 [3]: 1.87 µM (active) | IC50 [4]: > 50 µM (not active) | IC50 [5]: > 50 µM (not active) | CC50 [6]: 40.2 µM (active) | EC50 [7]: 12.9 µM (active)

COc1ccc(C(c2cc3c(cc2O)OCO3)N2CCCCC2)cc1OC (configuration not stated)
IC50 [8]: > 40 µM (not active)

C[C@H]1CCCC(=O)CCC/C=C/c2cc(O)cc(O)c2C(=O)O1 [ZEARALENONE]
AC50 [9]: 39.8 µM (inconclusive) and 56.2 µM (inconclusive) | IC50 [10]: 6.92 µM (active) | IC50 (Heat shock protein HSP90): 2.402 µM

Cc1cccc(COc2ccc3c(c2)oc(=O)c2ccccc23)c1
Ki [11]: 26.4 µM (inactive)

O=[N+]([O-])c1ccc2c(c1)-c1ccccc1C2=NO
AC50 [12]: 8.4 µM (active) | AC50 [13]: 3.93 µM (active)
